“And” between values parts separate entries of the source, which are not always exact repeats. Identical values can stand only once.
Columns and labels:
Experiment in all cases: Competitive isoTOP-ABPP, cell lysates
Assay type in all cases: binding
IRF4 C194 (Q15306) = molecular target: T1, IRF4 C194 (Q15306) (Homo sapiens, UniProt Q15306); conditions: for isoTOP-ABPP ratio (reactivity profile), Q15306_C194: 500 μm in-vitro ramos
T1 sequence (Q15306 1-451): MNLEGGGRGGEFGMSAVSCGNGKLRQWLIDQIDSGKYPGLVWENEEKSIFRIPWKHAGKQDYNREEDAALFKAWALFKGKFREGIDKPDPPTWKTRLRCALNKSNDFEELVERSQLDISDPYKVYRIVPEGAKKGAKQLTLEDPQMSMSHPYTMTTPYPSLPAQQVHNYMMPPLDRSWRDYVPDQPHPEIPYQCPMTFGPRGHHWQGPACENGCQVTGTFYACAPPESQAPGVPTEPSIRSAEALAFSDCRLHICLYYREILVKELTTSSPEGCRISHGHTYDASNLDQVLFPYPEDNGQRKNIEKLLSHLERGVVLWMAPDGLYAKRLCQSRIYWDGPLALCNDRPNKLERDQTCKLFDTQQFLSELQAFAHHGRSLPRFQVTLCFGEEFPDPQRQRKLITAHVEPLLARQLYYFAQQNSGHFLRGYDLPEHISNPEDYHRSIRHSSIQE

SAMHD1 C522 (Q9Y3Z3) = SAMHD1 C522 (Q9Y3Z3) (Homo sapiens, UniProt Q9Y3Z3)
Sequence of SAMHD1 C522 (Q9Y3Z3) (Q9Y3Z3 whole entry): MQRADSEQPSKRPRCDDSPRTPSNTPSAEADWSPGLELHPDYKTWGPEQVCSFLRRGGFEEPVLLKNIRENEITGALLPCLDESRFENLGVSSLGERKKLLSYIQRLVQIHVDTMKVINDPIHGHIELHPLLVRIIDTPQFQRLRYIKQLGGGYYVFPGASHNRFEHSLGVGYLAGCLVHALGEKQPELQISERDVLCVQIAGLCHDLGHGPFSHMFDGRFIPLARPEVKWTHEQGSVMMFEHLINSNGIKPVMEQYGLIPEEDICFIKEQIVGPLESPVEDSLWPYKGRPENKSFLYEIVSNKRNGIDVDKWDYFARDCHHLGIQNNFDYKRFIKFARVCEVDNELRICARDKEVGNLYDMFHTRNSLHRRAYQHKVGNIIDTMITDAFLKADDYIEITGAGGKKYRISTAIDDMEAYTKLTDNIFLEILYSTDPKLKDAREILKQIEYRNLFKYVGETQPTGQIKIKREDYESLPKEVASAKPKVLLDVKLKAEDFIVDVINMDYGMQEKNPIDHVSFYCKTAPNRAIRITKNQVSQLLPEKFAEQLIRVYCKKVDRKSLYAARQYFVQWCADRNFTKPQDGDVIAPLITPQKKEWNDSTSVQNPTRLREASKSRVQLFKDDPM

PDE12 C108 (Q6L8Q7) = molecular target: T2, PDE12 C108 (Q6L8Q7) (Homo sapiens, UniProt Q6L8Q7); conditions: for isoTOP-ABPP reactivity ratio, Q6L8Q7_C108 / isoTOP-ABPP reactivity profile ratio, Q6L8Q7_C108: 500 μm
T2 sequence (Q6L8Q7 43-609): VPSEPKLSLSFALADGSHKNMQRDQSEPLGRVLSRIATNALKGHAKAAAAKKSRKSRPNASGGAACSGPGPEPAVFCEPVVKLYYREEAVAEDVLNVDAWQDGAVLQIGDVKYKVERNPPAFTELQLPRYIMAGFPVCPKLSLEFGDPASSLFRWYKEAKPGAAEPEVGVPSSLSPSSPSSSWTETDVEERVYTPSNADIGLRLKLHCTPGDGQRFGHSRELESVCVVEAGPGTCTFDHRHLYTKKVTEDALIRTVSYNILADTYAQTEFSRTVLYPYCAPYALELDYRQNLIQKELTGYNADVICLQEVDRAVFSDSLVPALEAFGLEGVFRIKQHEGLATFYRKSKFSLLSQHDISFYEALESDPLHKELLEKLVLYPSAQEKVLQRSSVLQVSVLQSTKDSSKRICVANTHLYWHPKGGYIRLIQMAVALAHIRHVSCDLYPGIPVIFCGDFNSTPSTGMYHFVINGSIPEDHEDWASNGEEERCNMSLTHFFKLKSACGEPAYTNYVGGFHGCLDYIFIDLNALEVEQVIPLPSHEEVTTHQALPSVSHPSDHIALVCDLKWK

UCHL3 C95 (P15374) = molecular target: T3, UCHL3 C95 (P15374) (Homo sapiens, UniProt P15374)
T3 sequence (P15374 1-230): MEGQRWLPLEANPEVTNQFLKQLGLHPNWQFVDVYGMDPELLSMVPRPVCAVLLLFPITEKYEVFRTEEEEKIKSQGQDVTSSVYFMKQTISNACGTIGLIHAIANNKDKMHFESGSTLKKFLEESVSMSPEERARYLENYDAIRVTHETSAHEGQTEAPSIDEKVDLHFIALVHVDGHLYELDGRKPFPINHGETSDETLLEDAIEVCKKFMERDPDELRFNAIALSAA

ADA C75 (P00813) = molecular target: T4, ADA C75 (P00813) (Homo sapiens, UniProt P00813)
T4 sequence (P00813 1-363): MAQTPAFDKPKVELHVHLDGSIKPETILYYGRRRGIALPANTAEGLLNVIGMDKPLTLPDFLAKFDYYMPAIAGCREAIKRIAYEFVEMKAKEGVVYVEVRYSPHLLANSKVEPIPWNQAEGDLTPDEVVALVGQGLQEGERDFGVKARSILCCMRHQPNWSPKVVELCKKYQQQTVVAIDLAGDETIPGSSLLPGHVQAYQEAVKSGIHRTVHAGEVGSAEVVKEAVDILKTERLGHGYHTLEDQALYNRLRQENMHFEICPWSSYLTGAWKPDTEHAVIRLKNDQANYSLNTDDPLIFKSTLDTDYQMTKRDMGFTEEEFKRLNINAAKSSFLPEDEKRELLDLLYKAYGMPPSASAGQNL

SMILES | isoTOP-ABPP ratio (reactivity profile), Q6L8Q7_C108 (PDE12 C108 (Q6L8Q7); 500 μm in-vitro ramos) | isoTOP-ABPP ratio (reactivity profile), P15374_C95 (UCHL3 C95 (P15374); 500 μm in-vitro ramos) | isoTOP-ABPP reactivity ratio, Q15306_C194 (IRF4 C194 (Q15306); 500 μm, in-vitro_ramos) | isoTOP-ABPP reactivity ratio, P15374_C95 (UCHL3 C95 (P15374); 500 μm, in-vitro_ramos) | isoTOP-ABPP reactivity ratio, P00813_C75 (ADA C75 (P00813); 500 μm, in-vitro_ramos) | isoTOP-ABPP reactivity ratio, Q9Y3Z3_C522 (SAMHD1 C522 (Q9Y3Z3); 500 μm, in-vitro_ramos_231) | isoTOP-ABPP reactivity ratio, Q6L8Q7_C108 (PDE12 C108 (Q6L8Q7); in-vitro_ramos_231) | isoTOP-ABPP reactivity ratio, P15374_C95 (UCHL3 C95 (P15374); 500 μm, in-vitro_ramos_231) | further results
CC(C)CCOCCNC(=O)CCl [compound 27] | 1.3 | 1.0 |  |  |  |  |  |  | isoTOP-ABPP ratio (reactivity profile), Q15306_C194 (IRF4 C194 (Q15306)): 1.0; isoTOP-ABPP ratio (reactivity profile), Q9Y3Z3_C522 (SAMHD1 C522 (Q9Y3Z3); 500 μm in-vitro ramos): 0.9; isoTOP-ABPP ratio (reactivity profile), Q9Y3Z3_C522 (SAMHD1 C522 (Q9Y3Z3); 500 μm in-vitro ramos_231): 0.8 and 1.0; isoTOP-ABPP ratio (reactivity profile), Q6L8Q7_C108 (PDE12 C108 (Q6L8Q7); 500 μm in-vitro ramos_231): 0.5; isoTOP-ABPP ratio (reactivity profile), P15374_C95 (UCHL3 C95 (P15374); 500 μm in-vitro ramos_231): 0.4; isoTOP-ABPP ratio (reactivity profile), P00813_C75 (ADA C75 (P00813); 500 μm in-vitro ramos): 1.0; isoTOP-ABPP ratio (reactivity profile), P00813_C75 (ADA C75 (P00813); 500 μm in-vitro ramos_231): 1.1
COc1ccccc1OCCNC(=O)CCl [compound 28] | 1.2 | 0.9 |  |  |  |  |  |  | isoTOP-ABPP ratio (reactivity profile), Q15306_C194 (IRF4 C194 (Q15306)): 1.1; isoTOP-ABPP ratio (reactivity profile), Q9Y3Z3_C522 (SAMHD1 C522 (Q9Y3Z3); 500 μm in-vitro ramos_231): 1.0; isoTOP-ABPP ratio (reactivity profile), Q6L8Q7_C108 (PDE12 C108 (Q6L8Q7); 500 μm in-vitro ramos_231): 1.0; isoTOP-ABPP ratio (reactivity profile), P15374_C95 (UCHL3 C95 (P15374); 500 μm in-vitro ramos_231): 1.1; isoTOP-ABPP ratio (reactivity profile), P00813_C75 (ADA C75 (P00813); 500 μm in-vitro ramos): 0.9
CCN(CC)c1ccc(S(N)(=O)=O)cc1NC(=O)CCl [compound 30] | 1.1 | 0.7 | 1.7 | 1.0 | 3.1 |  |  |  | isoTOP-ABPP ratio (reactivity profile), Q9Y3Z3_C522 (SAMHD1 C522 (Q9Y3Z3); 500 μm in-vitro ramos): 0.7; isoTOP-ABPP reactivity ratio, Q6L8Q7_C108 (PDE12 C108 (Q6L8Q7); in-vitro_ramos): 1.6
C=CC(=O)N(Cc1cccnc1)c1cc(C(F)(F)F)cc(C(F)(F)F)c1 [compound 31] |  |  | 1.1 | 0.7 | 0.8 | 1.5 | 2.0 | 0.9 | 
CC(C)(C)c1cc(NC(=O)CCl)on1 [compound 32] |  |  | 3.7 | 1.0 | 1.7 |  | 2.5 | 1.2 | isoTOP-ABPP reactivity ratio, Q9Y3Z3_C522 (SAMHD1 C522 (Q9Y3Z3); 500 μm, in-vitro_ramos): 1.8; isoTOP-ABPP reactivity ratio, Q6L8Q7_C108 (PDE12 C108 (Q6L8Q7); in-vitro_ramos): 1.9
C=CC(=O)Nc1cc(C)c(Br)cc1C [compound 40] |  |  | 1.1 | 0.9 | 0.9 | 0.8 | 0.8 |  | 
Cc1ccc(C=C(C#N)C(=O)NCCN2CCOCC2)cc1 [compound 41] |  |  | 1.2 | 0.8 | 1.1 | 0.9 | 1.3 | 1.0 | 
O=C(CCl)Nc1ccc(-c2ccccc2)cc1 [compound 52] |  |  |  |  |  |  |  |  | isoTOP-ABPP reactivity profile ratio, Q15306_C194 (IRF4 C194 (Q15306); 500 μm, in-vitro_ramos): 1.4; isoTOP-ABPP reactivity profile ratio, Q9Y3Z3_C522 (SAMHD1 C522 (Q9Y3Z3); 500 μm, in-vitro_ramos_231): 1.2; isoTOP-ABPP reactivity profile ratio, Q6L8Q7_C108 (PDE12 C108 (Q6L8Q7); in-vitro_ramos): 6.8; isoTOP-ABPP reactivity profile ratio, Q6L8Q7_C108 (PDE12 C108 (Q6L8Q7); in-vitro_ramos_231): 1.4; isoTOP-ABPP reactivity profile ratio, P15374_C95 (UCHL3 C95 (P15374); 500 μm, in-vitro_ramos_231): 1.2; isoTOP-ABPP reactivity profile ratio, P00813_C75 (ADA C75 (P00813); 500 μm, in-vitro_ramos): 1.2

— patent US10670605B2, “Cysteine reactive probes and uses thereof” (The Scripps Research Institute, priority 2015, dated 2020)
